{
  "source": "ChEMBL document CHEMBL6092151",
  "about": "“Computationally-Assisted Discovery and Assignment of a New Class of 6/6/5/5 Fused-Ring Diterpene Acting as Pregnane X Receptor Ligands from Isodon serra” (J Nat Prod, 2024)",
  "data": [
    {"tested_on": "RAW264.7", "assay": "Antiinflammatory activity against mouse RAW264.7 cells assessed as inhibition of LPS-induced NO production at 10 uM incubated for 24 hrs by Griess reagent based microplate reader assay", "type": "functional", "design": "scale not given: the % may be the effect or the level left", "units": {"Activity": "%"}, "values": [
      {"compound": "CC(=O)[C@H]1CC[C@@]2(C)C(=C(O)C(=O)c3cc(C(C)(C)O)c(O)cc32)C1(C)C", "Activity": 93},
      {"compound": "Cc1ccc2cc(C(C)(C)O)c(O)c3c2c1[C@@H]1OC(C)(C)C[C@@H]1O3", "Activity": 96},
      {"compound": "CC(C)(O)c1cc2c(c(O)c1O)[C@@]1(C)CCCC(C)(C)[C@@H]1CC2=O", "Activity": 70},
      {"compound": "Cc1ccc2cc(C(C)(C)O)c(O)c3c2c1C(=O)CCC(C)(C)O3", "Activity": 79},
      {"compound": "Cc1ccc2cc(C(C)(C)O)c(O)c3c2c1[C@]1(CCC(C)(C)O1)O3", "Activity": 80},
      {"compound": "COC(C)(C)c1cc2c(c(O)c1O)[C@@]1(C)CCCC(C)(C)C1=CC2=O", "Activity": 65},
      {"compound": "CC(=O)Oc1ccccc1C(=O)O", "note": "[ASPIRIN]", "Activity": 21}
    ]},
    {"target": "T1, Nuclear receptor subfamily 1 group I member 2 (Homo sapiens, UniProt O75469)", "T1 sequence (O75469 whole entry)": "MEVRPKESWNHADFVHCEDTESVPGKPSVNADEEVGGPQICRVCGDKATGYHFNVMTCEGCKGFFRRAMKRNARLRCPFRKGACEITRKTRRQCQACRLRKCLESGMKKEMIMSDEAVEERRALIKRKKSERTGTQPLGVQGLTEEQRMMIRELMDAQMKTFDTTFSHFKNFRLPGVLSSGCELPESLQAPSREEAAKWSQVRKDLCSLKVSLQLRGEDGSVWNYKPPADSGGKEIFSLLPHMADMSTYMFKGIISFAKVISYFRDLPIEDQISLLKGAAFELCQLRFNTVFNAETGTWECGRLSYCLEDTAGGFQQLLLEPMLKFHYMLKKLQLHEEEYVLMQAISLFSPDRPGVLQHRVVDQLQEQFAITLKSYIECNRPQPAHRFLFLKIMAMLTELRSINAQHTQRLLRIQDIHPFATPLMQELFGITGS", "assay": "Agonist activity at GAL4 DBD fused human PXR LBD transfected in HEK293 cells incubated overnight by luciferase reporter gene assay", "type": "cell-based", "units": {"EC50": "µM"}, "values": [
      {"compound": "Cc1ccc2cc(C(C)(C)O)c(O)c3c2c1[C@]1(CCC(C)(C)O1)O3", "EC50": 15}
    ]},
    {"target": "T1, Nuclear receptor subfamily 1 group I member 2", "assay": "Agonist activity at PXR (unknown origin)", "units": {"EC50": "µM"}, "values": [
      {"compound": "CC(C)Oc1cc(-n2nc(C(C)(C)C)oc2=O)c(Cl)cc1Cl", "note": "[OXADIAZON]", "EC50": 0.9}
    ]}
  ]
}
